Test results taken from the NIST ThermoML archive (doi:10.1016/j.jct.2006.07.017).
Numbers after ± are expanded uncertainties.

Columns and labels:
[1] = refractive index (Na D-line) (dimensionless); conditions: 298.15 K; 101.33 kPa; Liquid; Standard Abbe refractometry
[2] = 298.15 K; 101.33 kPa; Liquid
[3] = xn = mol fraction of the nth substance listed; conditions: 101 kPa, Liquid

Cc1cccc(C)c1 [1,3-dimethylbenzene]
Conditions | mass density [kg/m3] | refractive index
[1] | – | 1.4973 ± 0.0008
[2] | 859.83 ± 1.6 | –

Cc1ccccc1C [1,2-dimethylbenzene]
Conditions | mass density [kg/m3] | refractive index
[1] | – | 1.5057 ± 0.0007
[2] | 875.73 ± 0.34 | –

CN(C)C=O [dimethylformamide]
Conditions | mass density [kg/m3] | refractive index
[1] | – | 1.4307 ± 0.0007
[2] | 943.85 ± 0.23 | –

Cc1ccc(C)cc1 [1,4-dimethylbenzene] + CN(C)C=O
[3]
Conditions | mass density [kg/m3]
293.15 K, x1 = 0.0562 | 941.87 ± 0.34
293.15 K, x1 = 0.1211 | 934.47 ± 0.37
293.15 K, x1 = 0.1885 | 927.18 ± 0.39
293.15 K, x1 = 0.2532 | 920.51 ± 0.41
293.15 K, x1 = 0.3225 | 913.72 ± 0.43
293.15 K, x1 = 0.3865 | 907.74 ± 0.46
293.15 K, x1 = 0.4525 | 901.85 ± 0.48
293.15 K, x1 = 0.5121 | 896.75 ± 0.5
293.15 K, x1 = 0.5853 | 890.75 ± 0.52
293.15 K, x1 = 0.6441 | 886.12 ± 0.54
293.15 K, x1 = 0.7154 | 880.72 ± 0.56
293.15 K, x1 = 0.7664 | 876.98 ± 0.58
293.15 K, x1 = 0.8353 | 872.08 ± 0.6
293.15 K, x1 = 0.8901 | 868.29 ± 0.62
293.15 K, x1 = 0.9577 | 863.74 ± 0.64
303.15 K, x1 = 0.0625 | 931.96 ± 0.37
303.15 K, x1 = 0.1321 | 924.04 ± 0.39
303.15 K, x1 = 0.1912 | 917.66 ± 0.41
303.15 K, x1 = 0.2684 | 909.75 ± 0.44
303.15 K, x1 = 0.3325 | 903.53 ± 0.46
303.15 K, x1 = 0.3965 | 897.61 ± 0.48
303.15 K, x1 = 0.4584 | 892.15 ± 0.5
303.15 K, x1 = 0.5214 | 886.82 ± 0.52
303.15 K, x1 = 0.5853 | 881.64 ± 0.54
303.15 K, x1 = 0.6485 | 876.73 ± 0.56
303.15 K, x1 = 0.7112 | 872.04 ± 0.58
303.15 K, x1 = 0.7866 | 866.61 ± 0.61
303.15 K, x1 = 0.8415 | 862.79 ± 0.62
303.15 K, x1 = 0.9054 | 858.48 ± 0.65
303.15 K, x1 = 0.9658 | 854.51 ± 0.67
313.15 K, x1 = 0.0455 | 924.59 ± 0.38
313.15 K, x1 = 0.1112 | 916.97 ± 0.4
313.15 K, x1 = 0.1862 | 908.77 ± 0.43
313.15 K, x1 = 0.2562 | 901.56 ± 0.45
313.15 K, x1 = 0.3215 | 895.19 ± 0.48
313.15 K, x1 = 0.3952 | 888.37 ± 0.5
313.15 K, x1 = 0.4514 | 883.43 ± 0.52
313.15 K, x1 = 0.5111 | 878.4 ± 0.54
313.15 K, x1 = 0.5841 | 872.52 ± 0.56
313.15 K, x1 = 0.6451 | 867.83 ± 0.58
313.15 K, x1 = 0.7124 | 862.86 ± 0.6
313.15 K, x1 = 0.7854 | 857.69 ± 0.62
313.15 K, x1 = 0.8451 | 853.61 ± 0.64
313.15 K, x1 = 0.9011 | 849.9 ± 0.66
313.15 K, x1 = 0.9655 | 845.75 ± 0.68

Cc1ccc(C)cc1 [1,4-dimethylbenzene]
Conditions | mass density [kg/m3] | refractive index
[1] | – | 1.4958 ± 0.0008
[2] | 856.58 ± 0.85 | –
